The source of these data is patent US8673336B2, “Composition, system, and method for modulating release kinetics in implantable drug delivery devices by modifying drug solubility” (Innovational Holdings LLC, priority 2005, dated 2014).

Counter-ions that a name gives are not always drawn.

A short description of series [1]: in vitro cumulative release from low dose imatinib stents (PLGA 85/15 matrix, base and cap). The format is physicochemical. The settings on record: about 160 micrograms per 16 mm stent, average of three stents. On the procedure: The imatinib free-base (slow release) and the imatinib meslate salt (Gleevec) were loaded into holes in stents in a polymer matrix of PLGA 85/15 with a PLGA 85/15 base and cap and the release from the stents was recorded in FIG. 1. A solvent such as NMP or anisol was used to deposit the drug/polymer compositions and then evaporated. The releases shown in FIG. 1 are the average of three stents each. Methods and systems for depositing polymers and drugs within holes in stents are described further in WO 2004/026182 which is incorporated herein by reference.
The dosage for this example was about 160 micrograms normalized for a 16 mm long stent. The free base and salt forms where then combined in the ratios of 86:14, 66:34, and 46:54 and it was shown that the rate of the release (solubility of the drug) is proportional to the percentage of free base or salt. Thus, the selection of a percentage of free base and salt can be used to provide a selected drug release kinetic.
The addition of the free-base form allows the release to be extended past 48 hours to about 72 hours for a formulation of 46% free base and to about 120 hours for a formulation of about 66% free base. While a formulation with 86% free base continues to release imatinib in-vitro at 168 hours and beyond.

Series [2] in a line: effect of counter ions on in vitro release of imatinib from stents. Type of series: physicochemical. The note with it: total drug load 150 μg to 200 μg; PLA-PLC base and cap, PLGA matrix. As for the experimental part:
FIG. 4 illustrates the effect of several counter ions on the in vitro release of a drug, in this example imatinib. Total drug load was 150 μg to 200 μg. PLA-PLC was used in the base and cap while the matrix containing the drug was PLGA as in Examples 1 and 2.

Regarding `Cc1ccc(NC(=O)c2ccc(CN3CCN(C)CC3)cc2)cc1Nc1nccc(-c2cccnc2)n1` [free base, imatinib], in series [1], the “rate of release from stents (FIG. 1)” value is recorded as “slowest release”.

For `Cc1ccc(NC(=O)c2ccc(CN3CCN(C)CC3)cc2)cc1Nc1nccc(-c2cccnc2)n1` [imatinib mesylate], the “cumulative in vitro release (FIG. 4)” value in series [2] is listed as “significantly higher cumulative release, relatively quickly, than imatinib salicylate”. Further, the “time until release is essentially complete / extent of release duration (FIG. 1)” value in series [1] is “about 48 hours”. Moreover, the “rate of release from stents (FIG. 1)” value in series [1] (listed as salt) was “fastest release”.

In the case of `Cc1ccc(NC(=O)c2ccc(CN3CCN(C)CC3)cc2)cc1Nc1nccc(-c2cccnc2)n1.O=C(O)c1ccccc1O` [imatinib salicylate], the “cumulative in vitro release (FIG. 4)” value in series [2] is given as “significantly higher that that of imatinib”.
